In patent US20210009627A1, “CYCLIC DINUCLEOTIDE COMPOUNDS CONTAINING 2-AZA-HYPOXANTHINE OR 6H-PYTAZOLO[1,5-D][1,2,4]TRIZAIN-7-ONE AS STRING AGONISTS” (BOEHRINGER INGELHEIM INTERNATIONAL GMBH, priority 2018, published 2021) one finds EC50 and ΔTm data, which are given here for two compounds.

Structures can show the parent of a compound that is named as a salt.

One assay addresses T1, hSTING WT (Homo sapiens, UniProt Q86WV6, H232R).
T1 construct: expressed in transfected cells; host or cells: THP1-Blue ISG hSTING KO clone, retroviral MSCV-ires-GFP-Blasti
The assay can be described thus: THP1-Blue ISG hSTING KO reporter cells expressing hSTING WT variant. The class given is cell-based. Particulars: WT variant cell line. An excerpt: (§1) Several single nucleotide polymorphisms have been identified in the human STING gene that may affect the response to cyclic dinucleotides. To determine the activity of compounds of the invention, THP1-Blue ISG reporter cell lines expressing the different human STING variants have been generated. To do so, the endogenous human STING was first deleted using the CRISPR/CAS9 system: THP1-Blue ISG cells were electroporated with ALL-IN-ONE CRISPR plasmids targeting the STING gene (purchased from Sigma encoding the gRNA and GFP as a reporter gene for successful transduction). GFP positive cells then were sorted 24 h post transfection and expanded. Cells were then dispersed in semisolid methocel medium to allow single cell clone isolations. Clones were then screened for cGAMP responsiveness using the Quanti-blue reporter assay. Non-responsive clones were subsequently analysed for STING loss by western blotting and sequencing of the STING locus.
(§2) For the overexpression of the human STING variants, a confirmed THP1-Blue ISG hSTING KO clone was transduced with individual retroviral plasmids (MSCV-ires-GFP-Blasti) encoding the allelic variants of hSTING (WT, HAQ, R232H, AQ and R293Q), respectively. Transduced cells were sorted for different levels of GFP fluorescence and STING allele expression was analysed by western blot.

In assay [1] the target is T2, human STING protein in THP1-Blue ISG cells (Homo sapiens, UniProt Q86WV6, G230A/H232R/R293Q/R71H).
T2 construct: host or cells: THP1-Blue ISG cells
The assay can be described thus: In vitro cytokine induction, THP1-Blue ISG reporter cell assay (IRF-inducible SEAP). The class given is cell-based. To be noted: 24 hours incubation, SEAP OD at 620 nm. The source says: In Vitro Cytokine Induction
Activation of the STING protein expressed in THP1 cells results in an increase of interferon production. By the stable integration of an interferon regulatory factor (IRF)-inducible SEAP (secreted embryonic alkaline phosphatase) reporter construct the functional interferon signaling pathway can be monitored. Using Invivogen's QUANTI-Blue™ colorimetric enzyme assay and a suitable optical density (OD) reader the activity of SEAP can be detected and quantified. This technique could be used to characterize pharmacological modification of the STING protein. Measurements of SEAP activity were performed in THP1-Blue™ ISG cells stably expressing the human STING protein and the IRF-inducible SEAP reporter construct. Cells were cultivated for expansion in RPMI1640 medium with 10% fetal calf serum, 50 μg/ml Penicillin-Streptomycin, 100 μg/ml Zeocin, and 100 μg/ml Normocin in a 37°, 95% humidity and 5% CO2 incubator. Assay-ready cells were stored as frozen stocks.
In preparation for the assay, the cells were thawed in Zeocin-/Normocin-free medium and were distributed into the assay plates with a density of 15000 cells/15 μL per well. […]
At the day of the assay, 75 μl per well of Quanti-Blue reagent was added to all wells of the plate and the plate was incubated another 30 minutes at 37° C. The OD at 620 nm was measured on the EnVision reader (PerkinElmer). […]

The next assay concerns the target T3, hSTING HAQ (Homo sapiens, UniProt Q86WV6, G230A/H232R/R293Q/R71H).
T3 construct: expressed in transfected cells; host or cells: THP1-Blue ISG hSTING KO clone, retroviral MSCV-ires-GFP-Blasti
Nature of the assay: THP1-Blue ISG hSTING KO reporter cells expressing hSTING HAQ variant. Particulars: HAQ variant cell line. The class given is cell-based.
Source text: as §1, §2

Another assay deals with T4, hSTING R293Q (Homo sapiens, UniProt Q86WV6, H232R/R293Q).
T4 construct: expressed in transfected cells; host or cells: THP1-Blue ISG hSTING KO clone, retroviral MSCV-ires-GFP-Blasti
Nature of the assay: THP1-Blue ISG hSTING KO reporter cells expressing hSTING R293Q variant. Particulars: R293Q variant cell line. It counts as cell-based.
Source text: as §1, §2

In assay [2] the target is Human STING (hSTING, residues 155-341, wild-type sequence) (Homo sapiens, UniProt Q86WV6, H232R). The assay can be described thus: hSTING binding by differential scanning fluorimetry (DSF). Particulars: 100 μM test compound, 3 μM target protein, thermal shift, at least two measurements averaged; read-out: hSTING Tm shift. As for the experimental part: 3) 2 μl of this protein-dye-mixture (25× SYPRO Orange and 15 μM Protein) was added to 8 μl compound solution. Final volume was 10 μL. 4) Certain well positions were used as negative control. 5) The plates were prepared for duplicate measurement and centrifuged for 2 min at 1000 g. 6) In the measurement, 160 cycles of 0.5° C. were used (temperature ramp 15 s/cycle, 15° C. to 95° C.). Data analysis: The dissociation curves were processed in Bio-Rad CFX Manager. Peak type was set to “negative”. At least two measurements were averaged.
Background: Differential scanning fluorimetry follows unfolding on heating by fluorescence.

In the next assay the target is T5, hSTING AQ (Homo sapiens, UniProt Q86WV6, G230A/H232R/R293Q).
T5 construct: expressed in transfected cells; host or cells: THP1-Blue ISG hSTING KO clone, retroviral MSCV-ires-GFP-Blasti
The assay can be described thus: THP1-Blue ISG hSTING KO reporter cells expressing hSTING AQ variant. The class given is cell-based. To be noted: AQ variant cell line.
Source text: as §1, §2

In a further assay the target is T6, hSTING R232H (Homo sapiens, UniProt Q86WV6).
T6 construct: expressed in transfected cells; host or cells: THP1-Blue ISG hSTING KO clone, retroviral MSCV-ires-GFP-Blasti
Nature of the assay: THP1-Blue ISG hSTING KO reporter cells expressing hSTING R232H variant. It counts as cell-based. To be noted: R232H variant cell line.
Source text: as §1, §2

T2 sequence (Q86WV6 whole entry R71H/G230A/H232R/R293Q): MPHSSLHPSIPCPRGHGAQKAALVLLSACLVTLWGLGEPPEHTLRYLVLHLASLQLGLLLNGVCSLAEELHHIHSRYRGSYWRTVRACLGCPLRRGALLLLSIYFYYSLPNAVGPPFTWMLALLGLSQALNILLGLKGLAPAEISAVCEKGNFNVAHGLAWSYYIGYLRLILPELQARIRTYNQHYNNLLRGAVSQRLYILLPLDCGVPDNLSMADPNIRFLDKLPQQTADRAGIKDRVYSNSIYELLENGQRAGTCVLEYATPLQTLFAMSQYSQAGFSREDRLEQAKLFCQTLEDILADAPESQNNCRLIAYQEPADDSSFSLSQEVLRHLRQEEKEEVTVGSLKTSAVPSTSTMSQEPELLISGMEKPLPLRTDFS
Human STING (hSTING, residues 155-341, wild-type sequence), sequence (Q86WV6 155-341 H232R): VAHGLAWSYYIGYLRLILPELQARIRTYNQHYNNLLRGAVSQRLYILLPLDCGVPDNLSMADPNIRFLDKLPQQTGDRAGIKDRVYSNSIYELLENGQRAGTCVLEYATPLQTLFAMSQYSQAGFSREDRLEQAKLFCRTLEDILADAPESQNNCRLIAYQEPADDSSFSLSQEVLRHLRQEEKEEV
T5 sequence (Q86WV6 whole entry G230A/H232R/R293Q): as the sequence (Q86WV6 whole entry R71H/G230A/H232R/R293Q) above, with H71R counted along it
T6 sequence (Q86WV6 whole entry, stated change not applied): as the sequence (Q86WV6 whole entry R71H/G230A/H232R/R293Q) above, with H71R, A230G, R232H, Q293R counted along it
T3 sequence (Q86WV6 whole entry R71H/G230A/H232R/R293Q): as the sequence (Q86WV6 whole entry R71H/G230A/H232R/R293Q) above
T4 sequence (Q86WV6 whole entry H232R/R293Q): as the sequence (Q86WV6 whole entry R71H/G230A/H232R/R293Q) above, with H71R, A230G counted along it
T1 sequence (Q86WV6 whole entry H232R): as the sequence (Q86WV6 whole entry R71H/G230A/H232R/R293Q) above, with H71R, A230G, Q293R counted along it

Take `Nc1ncnc2c1ncn2[C@@H]1O[C@@H]2COP(=O)(S)O[C@@H]3[C@H](O)[C@@H](COP(=O)(S)O[C@H]2[C@H]1F)O[C@H]3n1cnc2c(=O)[nH]nnc21` (single isomer, unassigned) [Example 1.1, Cyclic 2-azainosine-(2′→5′)-phosphorothioate-2′-F-2′-deoxyadenosine-(3′→5′)-phosphoro-thioate sodium salt]: the EC50 at hSTING WT was found to be 510 µM; in assay [1], 0.16 µM; on hSTING HAQ, 510 µM; on hSTING R293Q it was 510 µM; on hSTING AQ, 510 µM; on hSTING R232H it was 510 µM. Further, in assay [2], the ΔTm at 100 µM stood at 23.9 °C.

As for `Nc1ncnc2c1ncn2[C@@H]1O[C@@H]2COP(=O)(S)O[C@@H]3[C@H](O)[C@@H](COP(=O)(S)O[C@H]2[C@H]1F)O[C@H]3c1cnn2c(=O)[nH]ncc12` (single isomer, unassigned) [Example 2.1, Cyclic 8-δ-D-ribofuranosyl-pyrazolo[1,5-d]-1,2,4-triazin-4(3H)-one-(2′→5′)-phosphorothioate-2′-F-2′-deoxyadenosine-(3′→5′)-phosphorothioate sodium salt], in assay [1], the EC50 came out at 0.14 µM. In addition, in assay [2], the ΔTm at 100 µM worked out at 17.9 °C.

As a reminder, the EC50 is the concentration giving half of the maximal effect.
